Laboratory results as given in patent US7880007B2, “Bicyclic substituted phenyl piperidine modulators of muscarinic receptors” (Vertex Pharmaceuticals Incorporated, priority 2004, dated 2011).

What was measured:
Assay type in all cases: cell-based
[1] = target: T1, M2 muscarinic receptor (Homo sapiens, UniProt P08172); test: Functional mobilization of intracellular calcium (FLIPR), M2-CHO cells; details: for Emax: 100% efficacy = maximum response obtained with the Carbachol control; for M2 Activity: M2-CHO cells, calcium mobilization (FLIPR)
T1 construct: expressed in transfected cells; host or cells: CHO (M2-CHO)
T1 sequence (P08172 1-466): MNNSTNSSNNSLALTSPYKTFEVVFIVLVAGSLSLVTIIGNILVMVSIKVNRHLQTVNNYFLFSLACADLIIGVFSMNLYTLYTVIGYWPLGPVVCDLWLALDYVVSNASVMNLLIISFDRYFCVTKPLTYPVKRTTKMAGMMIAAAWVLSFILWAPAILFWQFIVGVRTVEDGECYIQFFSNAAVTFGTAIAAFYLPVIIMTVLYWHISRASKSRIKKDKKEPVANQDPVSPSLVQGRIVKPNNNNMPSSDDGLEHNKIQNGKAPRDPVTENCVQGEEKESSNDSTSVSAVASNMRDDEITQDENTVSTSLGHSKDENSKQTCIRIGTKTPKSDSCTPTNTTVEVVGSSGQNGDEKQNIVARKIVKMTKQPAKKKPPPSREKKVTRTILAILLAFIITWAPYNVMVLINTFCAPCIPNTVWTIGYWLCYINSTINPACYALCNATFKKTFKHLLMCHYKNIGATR
In short: (§1)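 Calcium mobilisation read by FLIPR over 60 s (ex 488/em 540 nm) in recombinant muscarinic CHO lines loaded with calcium dye plus 1 mM probenecid. Compounds tested as agonists alone, or as inhibitors against EC80 carbachol after 15 min pre-incubation or co-addition; 0.5% DMSO; efficacy scaled to carbachol maximal response.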

[2] = target: T2, M3 muscarinic receptor (Homo sapiens, UniProt P20309); test: Functional mobilization of intracellular calcium (FLIPR), M3-CHO cells; details: for Emax: 100% efficacy = maximum response obtained with the Carbachol control; for M3 Activity: M3-CHO cells, calcium mobilization (FLIPR)
T2 construct: expressed in transfected cells; host or cells: CHO (M3-CHO)
In short: as §1

[3] = target: T3, M1 muscarinic receptor (Homo sapiens, UniProt P11229); test: Functional mobilization of intracellular calcium (FLIPR), M1-CHO cells; details: for Emax: 100% efficacy = maximum response obtained with the Carbachol control; for M1 Activity: M1-CHO cells, calcium mobilization (FLIPR)
T3 construct: expressed in transfected cells; host or cells: CHO (M1-CHO)
T3 sequence (P11229 1-460): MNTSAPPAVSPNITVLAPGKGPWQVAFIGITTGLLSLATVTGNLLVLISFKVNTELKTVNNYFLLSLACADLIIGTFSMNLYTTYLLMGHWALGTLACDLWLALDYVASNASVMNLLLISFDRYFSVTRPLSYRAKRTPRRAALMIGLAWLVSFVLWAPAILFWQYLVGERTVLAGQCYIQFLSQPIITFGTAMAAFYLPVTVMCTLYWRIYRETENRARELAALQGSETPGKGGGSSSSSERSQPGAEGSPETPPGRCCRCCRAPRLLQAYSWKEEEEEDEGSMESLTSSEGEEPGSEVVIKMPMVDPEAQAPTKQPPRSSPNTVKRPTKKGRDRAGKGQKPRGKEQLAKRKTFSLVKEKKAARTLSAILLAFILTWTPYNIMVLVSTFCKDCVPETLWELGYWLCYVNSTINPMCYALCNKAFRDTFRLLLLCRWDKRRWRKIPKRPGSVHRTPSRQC
In short: as §1

[4] = target: T4, M4 muscarinic receptor (Homo sapiens, UniProt P08173); test: Functional mobilization of intracellular calcium (FLIPR), M4-CHO cells; details: for Emax: 100% efficacy = maximum response obtained with the Carbachol control; for M4 Activity: M4-CHO cells, calcium mobilization (FLIPR)
T4 construct: expressed in transfected cells; host or cells: CHO (M4-CHO)
T4 sequence (P08173 1-479): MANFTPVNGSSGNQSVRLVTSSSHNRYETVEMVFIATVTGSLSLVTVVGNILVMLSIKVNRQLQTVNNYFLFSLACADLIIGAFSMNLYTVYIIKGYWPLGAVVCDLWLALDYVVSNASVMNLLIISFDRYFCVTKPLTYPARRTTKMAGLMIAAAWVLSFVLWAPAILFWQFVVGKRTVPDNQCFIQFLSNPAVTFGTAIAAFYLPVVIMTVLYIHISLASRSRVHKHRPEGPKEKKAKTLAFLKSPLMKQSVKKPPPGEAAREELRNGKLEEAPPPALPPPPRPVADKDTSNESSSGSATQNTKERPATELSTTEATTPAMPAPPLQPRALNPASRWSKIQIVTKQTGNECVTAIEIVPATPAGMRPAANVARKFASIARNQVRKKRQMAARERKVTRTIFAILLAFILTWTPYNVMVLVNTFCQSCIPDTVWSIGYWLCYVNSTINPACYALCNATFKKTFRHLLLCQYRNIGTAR
In short: as §1

T2 sequence (P20309 whole entry): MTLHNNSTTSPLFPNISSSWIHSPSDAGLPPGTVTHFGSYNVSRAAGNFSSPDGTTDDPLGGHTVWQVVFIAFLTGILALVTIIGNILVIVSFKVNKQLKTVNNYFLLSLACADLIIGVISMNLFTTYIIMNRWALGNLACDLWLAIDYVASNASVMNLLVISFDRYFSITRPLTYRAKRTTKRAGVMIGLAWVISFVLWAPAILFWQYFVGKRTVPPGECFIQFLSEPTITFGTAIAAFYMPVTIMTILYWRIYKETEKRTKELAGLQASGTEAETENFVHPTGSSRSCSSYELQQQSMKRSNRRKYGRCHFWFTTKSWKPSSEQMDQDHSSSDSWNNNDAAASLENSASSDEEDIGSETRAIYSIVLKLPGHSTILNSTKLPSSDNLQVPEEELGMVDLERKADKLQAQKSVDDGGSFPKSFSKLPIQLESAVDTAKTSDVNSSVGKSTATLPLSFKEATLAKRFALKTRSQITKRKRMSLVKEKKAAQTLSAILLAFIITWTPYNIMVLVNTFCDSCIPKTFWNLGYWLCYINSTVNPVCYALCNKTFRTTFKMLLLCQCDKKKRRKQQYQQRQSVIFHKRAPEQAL

Compound | Emax [1] [%] | M2 Activity [1] | Emax [2] [%] | M3 Activity [2] | Emax [3] [%] | M1 Activity [3] | Emax [4] [%] | M4 Activity [4]
COc1ccc(F)cc1C1(OC)CCN(C[C@@H]2C[C@H]3C=C[C@H]2C3)CC1 [Compound 160] | < 25 | + (activity was measured to be greater than 5.0 μM) | < 25 | + (activity was measured to be greater than 5.0 μM) | 25 to 100 | + (activity was measured to be greater than 5.0 μM) | 25 to 100 | +++ (activity was measured to be less than 1.0 μM)
COc1ccc(Cl)cc1C1(F)CCN(C2CCCCCC2)CC1 [Compound 161] | 25 to 100 | + (activity was measured to be greater than 5.0 μM) | < 25 | + (activity was measured to be greater than 5.0 μM) | 25 to 100 | + (activity was measured to be greater than 5.0 μM) | 25 to 100 | + (activity was measured to be greater than 5.0 μM)
COc1ccc(F)cc1C1CCN(CC2CCOCC2)CC1 [Compound 163] | < 25 | + (activity was measured to be greater than 5.0 μM) | < 25 | + (activity was measured to be greater than 5.0 μM) | 25 to 100 | + (activity was measured to be greater than 5.0 μM) | 25 to 100 | +++ (activity was measured to be less than 1.0 μM)
COc1c(F)cc(F)cc1C1CCN([C@H]2C[C@H]3CC[C@H]2C3)CC1 [Compound 165] | < 25 | + (activity was measured to be greater than 5.0 μM) | < 25 | + (activity was measured to be greater than 5.0 μM) | 25 to 100 | + (activity was measured to be greater than 5.0 μM) | 25 to 100 | ++ (activity was measured to be from 1.0 μM to 5.0 μM)
COc1ccc(F)cc1C1CCN(C[C@@H]2C[C@H]3C=C[C@H]2C3)CC1 [Compound 167] | < 25 | + (activity was measured to be greater than 5.0 μM) | < 25 | + (activity was measured to be greater than 5.0 μM) | 25 to 100 | ++ (activity was measured to be from 1.0 μM to 5.0 μM) | 25 to 100 | +++ (activity was measured to be less than 1.0 μM)
COc1ccc(-c2ccccc2)cc1C1CCN([C@H]2C[C@H]3CC[C@H]2C3)CC1 [Compound 168] | < 25 | + (activity was measured to be greater than 5.0 μM) | < 25 | + (activity was measured to be greater than 5.0 μM) | < 25 | + (activity was measured to be greater than 5.0 μM) | 25 to 100 | + (activity was measured to be greater than 5.0 μM)
COc1ccccc1C1CCN(C2CC3CCC(C3)C2)CC1 (centres unmarked) [Compound 169] | < 25 | + (activity was measured to be greater than 5.0 μM) | < 25 | + (activity was measured to be greater than 5.0 μM) | 25 to 100 | ++ (activity was measured to be from 1.0 μM to 5.0 μM) | 25 to 100 | +++ (activity was measured to be less than 1.0 μM)
O=C(COc1ccccc1C1CCN([C@H]2C[C@H]3CC[C@H]2C3)CC1)c1ccccc1Cl [Compound 170] | < 25 | + (activity was measured to be greater than 5.0 μM) | < 25 | + (activity was measured to be greater than 5.0 μM) | < 25 | + (activity was measured to be greater than 5.0 μM) | 25 to 100 | +++ (activity was measured to be less than 1.0 μM)
Cc1ccccc1C1(O)CCN(CC2CC3C=CC2C3)CC1 (centres unmarked) [Compound 171] | < 25 | + (activity was measured to be greater than 5.0 μM) | – | + (activity was measured to be greater than 5.0 μM) | 25 to 100 | ++ (activity was measured to be from 1.0 μM to 5.0 μM) | 25 to 100 | +++ (activity was measured to be less than 1.0 μM)
COc1ccc(-c2ccc(CC#N)cc2)cc1C1CCN(C2CC3CCC(C3)C2)CC1 (centres unmarked) [Compound 173] | < 25 | + (activity was measured to be greater than 5.0 μM) | < 25 | + (activity was measured to be greater than 5.0 μM) | < 25 | + (activity was measured to be greater than 5.0 μM) | 25 to 100 | + (activity was measured to be greater than 5.0 μM)
COc1ccc(Cl)c(C2CCN(C3C[C@H]4CC[C@H]3C4)CC2)c1 (some centres unmarked) [Compound 174] | < 25 | + (activity was measured to be greater than 5.0 μM) | < 25 | + (activity was measured to be greater than 5.0 μM) | < 25 | + (activity was measured to be greater than 5.0 μM) | < 25 | + (activity was measured to be greater than 5.0 μM)
COc1ccccc1C1CCN(C2CCC(C3CCCCC3)CC2)CC1 (centres unmarked) [Compound 175] | < 25 | + (activity was measured to be greater than 5.0 μM) | < 25 | + (activity was measured to be greater than 5.0 μM) | < 25 | + (activity was measured to be greater than 5.0 μM) | < 25 | + (activity was measured to be greater than 5.0 μM)
COc1ccc(F)cc1C1CCN(C2CCCCCC2)CC1 [Compound 176] | 25 to 100 | ++ (activity was measured to be from 1.0 μM to 5.0 μM) | < 25 | + (activity was measured to be greater than 5.0 μM) | 25 to 100 | +++ (activity was measured to be less than 1.0 μM) | 25 to 100 | +++ (activity was measured to be less than 1.0 μM)
CCOC(=O)N1CCC(CN2CCC(c3cc(OC)cc(F)c3F)CC2)CC1 [Compound 177] | < 25 | + (activity was measured to be greater than 5.0 μM) | < 25 | + (activity was measured to be greater than 5.0 μM) | 25 to 100 | +++ (activity was measured to be less than 1.0 μM) | 25 to 100 | +++ (activity was measured to be less than 1.0 μM)
COc1ccc(-c2ccccc2Cl)cc1C1CCN([C@H]2C[C@H]3CC[C@H]2C3)CC1 [Compound 178] | < 25 | + (activity was measured to be greater than 5.0 μM) | < 25 | + (activity was measured to be greater than 5.0 μM) | < 25 | + (activity was measured to be greater than 5.0 μM) | 25 to 100 | + (activity was measured to be greater than 5.0 μM)
